What was measured:
Assay type in all cases: functional, cell-based
[1] = target: T1, Solute carrier organic anion transporter family member 1B1 (Homo sapiens, UniProt Q9Y6L6); assay: (§1) TP_TRANSPORTER: uptake in OATP-C-expressing HEK293 cells
T1 sequence (Q9Y6L6 whole entry): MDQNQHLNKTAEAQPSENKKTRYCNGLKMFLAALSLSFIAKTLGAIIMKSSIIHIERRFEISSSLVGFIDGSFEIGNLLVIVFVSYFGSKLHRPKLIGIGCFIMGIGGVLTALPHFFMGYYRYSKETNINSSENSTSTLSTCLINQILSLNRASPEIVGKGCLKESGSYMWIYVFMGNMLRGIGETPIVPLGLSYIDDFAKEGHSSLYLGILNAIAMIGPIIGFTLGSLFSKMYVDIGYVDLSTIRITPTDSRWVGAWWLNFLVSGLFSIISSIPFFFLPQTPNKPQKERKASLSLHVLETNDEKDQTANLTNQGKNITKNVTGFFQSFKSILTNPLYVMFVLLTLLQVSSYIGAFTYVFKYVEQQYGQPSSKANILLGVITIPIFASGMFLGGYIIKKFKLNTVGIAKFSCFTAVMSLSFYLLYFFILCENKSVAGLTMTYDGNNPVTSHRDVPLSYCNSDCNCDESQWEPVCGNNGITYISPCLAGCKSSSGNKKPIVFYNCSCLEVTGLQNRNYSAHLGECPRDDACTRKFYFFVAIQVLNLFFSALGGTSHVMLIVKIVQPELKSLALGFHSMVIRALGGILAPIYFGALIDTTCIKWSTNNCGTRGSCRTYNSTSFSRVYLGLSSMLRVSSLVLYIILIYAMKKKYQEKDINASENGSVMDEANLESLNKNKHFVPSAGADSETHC

[2] = target: T2, OATP-C (OATP1B1, SLCO1B1) (Homo sapiens, UniProt Q9Y6L6); assay: TP_TRANSPORTER: inhibition of E217betaG uptake (DIDS: 50 uM, E217betaG: 1 uM) in OATP-C-expressing HEK293 cells; set-up: scale not given: the % may be the effect or the level left; settings: probe E217betaG (estradiol 17beta-glucuronide), read-out: Activity
T2 sequence (Q9Y6L6 whole entry): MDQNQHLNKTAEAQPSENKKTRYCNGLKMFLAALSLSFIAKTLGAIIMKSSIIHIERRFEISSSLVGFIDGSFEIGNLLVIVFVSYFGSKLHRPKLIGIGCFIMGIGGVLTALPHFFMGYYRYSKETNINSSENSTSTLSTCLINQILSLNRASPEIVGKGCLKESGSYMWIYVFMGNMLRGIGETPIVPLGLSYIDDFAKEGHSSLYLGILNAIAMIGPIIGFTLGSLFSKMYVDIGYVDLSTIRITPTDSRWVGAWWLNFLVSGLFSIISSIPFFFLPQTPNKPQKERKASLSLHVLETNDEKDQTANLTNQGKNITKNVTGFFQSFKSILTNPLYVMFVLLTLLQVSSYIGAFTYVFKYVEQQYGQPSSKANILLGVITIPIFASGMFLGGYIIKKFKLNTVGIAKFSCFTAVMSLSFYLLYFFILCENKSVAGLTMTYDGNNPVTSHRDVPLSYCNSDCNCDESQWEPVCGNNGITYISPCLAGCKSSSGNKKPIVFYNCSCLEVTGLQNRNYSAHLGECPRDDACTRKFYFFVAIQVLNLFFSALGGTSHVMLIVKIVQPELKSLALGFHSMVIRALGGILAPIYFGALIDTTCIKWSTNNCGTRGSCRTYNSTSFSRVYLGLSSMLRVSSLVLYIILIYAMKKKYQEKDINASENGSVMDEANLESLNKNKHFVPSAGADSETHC

[3] = target: T1, Solute carrier organic anion transporter family member 1B1; assay: TP_TRANSPORTER: inhibition of E217betaG uptake in OATP-C-expressing HEK293 cells
[4] = substrate: C[C@]12CC[C@@H]3c4ccc(O)cc4CC[C@H]3[C@@H]1CC[C@@H]2O[C@@H]1O[C@H](C(=O)O)[C@@H](O)[C@H](O)[C@H]1O; assay: as §1

Q: For `C=CC1=C(C)/C(=C/c2[nH]c(Cc3[nH]c(/C=C4\NC(=O)C(C)=C4C=C)c(C)c3CCC(=O)O[C@@H]3OC(C(=O)O)[C@@H](O)C(O)C3O)c(CCC(=O)O)c2C)NC1=O` (some centres undefined) [BILIRUBIN MONOGLUCURONIDE], which Activity [1] is on record?
A: substrate [+]

Q: Which activity at 50 µM [2] does the source give for `O=S(=O)(O)c1cc(N=C=S)ccc1/C=C/c1ccc(NC=S)cc1S(=O)(=O)O` here?
A: 6%

Q: Which Ki [3] does the source give for `O=C1OC(c2ccc(O)c(S(=O)(=O)O)c2)(c2ccc(O)c(S(=O)(=O)O)c2)c2c(Br)c(Br)c(Br)c(Br)c21` [SULFOBROMOPHTHALEIN SODIUM] here?
A: 44 nM

B1: Solute carrier organic anion transporter family member 1B1 (Homo sapiens) (protein)
chain: MDQNQHLNKTAEAQPSENKKTRYCNGLKMFLAALSLSFIAKTLGAIIMKSSIIHIERRFEISSSLVGFIDGSFEIGNLLVIVFVSYFGSKLHRPKLIGIGCFIMGIGGVLTALPHFFMGYYRYSKETNINSSENSTSTLSTCLINQILSLNRASPEIVGKGCLKESGSYMWIYVFMGNMLRGIGETPIVPLGLSYIDDFAKEGHSSLYLGILNAIAMIGPIIGFTLGSLFSKMYVDIGYVDLSTIRITPTDSRWVGAWWLNFLVSGLFSIISSIPFFFLPQTPNKPQKERKASLSLHVLETNDEKDQTANLTNQGKNITKNVTGFFQSFKSILTNPLYVMFVLLTLLQVSSYIGAFTYVFKYVEQQYGQPSSKANILLGVITIPIFASGMFLGGYIIKKFKLNTVGIAKFSCFTAVMSLSFYLLYFFILCENKSVAGLTMTYDGNNPVTSHRDVPLSYCNSDCNCDESQWEPVCGNNGITYISPCLAGCKSSSGNKKPIVFYNCSCLEVTGLQNRNYSAHLGECPRDDACTRKFYFFVAIQVLNLFFSALGGTSHVMLIVKIVQPELKSLALGFHSMVIRALGGILAPIYFGALIDTTCIKWSTNNCGTRGSCRTYNSTSFSRVYLGLSSMLRVSSLVLYIILIYAMKKKYQEKDINASENGSVMDEANLESLNKNKHFVPSAGADSETHC
Q: Which Km [4] does the source give for B1 here?
A: 8.2 µM

From ChEMBL document CHEMBL2074210, “A novel human organic anion transporting polypeptide localized to the basolateral hepatocyte membrane” (Am J Physiol Gastrointest Liver Physiol, 2000)
